Bounds are passed on as bounds.

In experiment [1] the test system is FoxO3a. Put plainly: FoxO3a inhibition: GFP-FoxO3a nuclear to cytoplasmic translocation reporter assay. It is filed as cell-based. The conditions noted are these: Homo sapiens, U2OS, 0.5 h, U2OS GFP-FoxO3a H212R cells, serum starved overnight, compound 30 minutes; ratio of nuclear to cytosolic GFP intensity; DMSO control 0%; read-out: FoxO AC50. The method, then:
(§1) Phosphorylation of AKT on S473 and FoxO3a nuclear to cytoplasmic translocation were used as readouts of PI3K/Akt/mTOR pathway activation downstream of growth factor signaling.
(§2) Reporter cell line. U2OS GFP-FoxO3a H212R reporter cell line was established by transducing U2OS cells with the retroviral plasmid pLEGFP-C1 containing FoxO3a H212R transgene and selecting for G418 resistant clones.
(§3) Reporter assay. U2OS GFP-FoxO3a H212R cells were plated in 384-well plates at 4000 cells per well in 30 microliters of McCoy's 5 A medium containing 10% FBS. On day 1 the cells were washed with serum free medium and serum starved overnight. On day 2 the cells were treated with different doses of the compounds for 30 minutes, fixed with 4% Paraformaldehyde for 1 hour and stained with Phospho-AKT (Ser473) antibody (Cell Signaling Technology, catalog #4060) overnight at 4 degrees Celsius. After nuclei staining with Hoechst 33342 (Life Technologies, catalog # H3570) the plates were imaged with InCell 2000 (GE Healthcare Bio-Sciences). FoxO3a inhibition activity is calculated as the ratio of nuclear to cytosolic GFP intensity in percent. AKT activation is measured as the total cellular intensity of Phospho-AKT antibody staining in percent. DMSO control is set as 0% activity.
On the technique in general: Reporter assays use an easily measured gene product as a stand-in for the process of interest.

For experiment [2], the system named is AKT. Put plainly: AKT activation: Phospho-AKT (Ser473) antibody staining in reporter cells. Format: cell-based. The conditions noted are these: Homo sapiens, U2OS, 0.5 h, U2OS GFP-FoxO3a H212R cells, serum starved overnight, compound 30 minutes; total cellular intensity of Phospho-AKT (Ser473) staining; DMSO control 0%. As for the experimental part: as §1, §2, §3

As for `Cc1cc(C(N)=O)nn1-c1ccc2c(ccn2Cc2ccc(-c3cccc(S(N)(=O)=O)c3)cc2)c1` [Example 1-20, 5-methyl-1-(1-((3′-sulfamoyl-[1,1′-biphenyl]-4-yl)methyl)-1H-indol-5-yl)-1H-pyrazole-3-carboxamide], the AC50 (as a rule, the concentration giving half of the maximal activity seen) in experiment [1] is 126 nM; in experiment [2], more than 10000 nM.

For the compound `Cc1cc(C(N)=O)nn1-c1ccc2c(ccn2Cc2ccc(-c3ccc4cc[nH]c4c3)cc2)c1` [Example 1-21, 1-(1-(4-(1H-indol-6-yl)benzyl)-1H-indol-5-yl)-5-methyl-1H-pyrazole-3-carboxamide], the AC50 is 420 nM in experiment [1] and 2970 nM in experiment [2].

For `Cc1cc(C(N)=O)nn1-c1ccc2c(ccn2Cc2ccc(-c3ccc4cnn(C)c4c3)cc2)c1` [Example 1-22, 5-methyl-1-(1-(4-(1-methyl-1H-indazol-6-yl)benzyl)-1H-indol-5-yl)-1H-pyrazole-3-carboxamide], the AC50 in experiment [1] turned out to be 167 nM; in experiment [2], 507 nM.

In the case of `Cc1cc(C(N)=O)nn1-c1ccc2c(ccn2Cc2ccc(-c3ccc(N(C)C)nc3)cc2)c1` [Example 1-23, 1-(1-(4-(6-(dimethylamino)pyridin-3-yl)benzyl)-1H-indol-5-yl)-5-methyl-1H-pyrazole-3-carboxamide], the AC50 in experiment [1] was determined as 93 nM; in experiment [2] it was 293 nM.

With `COc1cc(-c2ccc(Cn3ccc4cc(-n5nc(C(N)=O)cc5C)ccc43)cc2)ccn1` [Example 1-24, 1-(1-(4-(2-methoxypyridin-4-yl)benzyl)-1H-indol-5-yl)-5-methyl-1H-pyrazole-3-carboxamide], the AC50 turned out to be 123 nM in experiment [1] and 349 nM in experiment [2].

For the compound `Cc1cc(C(N)=O)nn1-c1ccc2c(ccn2Cc2ccc(-c3ccc4c(c3)CCNC4=O)cc2)c1` [Example 1-25, 5-methyl-1-(1-(4-(1-oxo-1,2,3,4-tetrahydroisoquinolin-6-yl)benzyl)-1H-indol-5-yl)-1H-pyrazole-3-carboxamide], the AC50 turned out to be 56 nM in experiment [1] and 197 nM in experiment [2].

Regarding `Cc1cc(C(N)=O)nn1-c1ccc2c(ccn2Cc2ccc(-c3ccc(N)cc3)cc2)c1` [Example 1-26, 1-(1-((4′-amino-[1,1′-biphenyl]-4-yl)methyl)-1H-indol-5-yl)-5-methyl-1H-pyrazole-3-carboxamide], the AC50 is 129 nM in experiment [1] and more than 10000 nM in experiment [2].

Consider `Cc1cc(C(N)=O)nn1-c1ccc2c(ccn2Cc2ccc(-c3ccc(F)cc3)cc2)c1` [Example 1-27, 1-(1-((4′-fluoro-[1,1′-biphenyl]-4-yl)methyl)-1H-indol-5-yl)-5-methyl-1H-pyrazole-3-carboxamide], for which the AC50 in experiment [1] was 229 nM; in experiment [2], more than 10000 nM.

As for `COc1ncc(-c2ccc(Cn3ccc4cc(-n5nc(C(N)=O)cc5C)ccc43)cc2)cn1` [Example 1-28, 1-(1-(4-(2-methoxypyrimidin-5-yl)benzyl)-1H-indol-5-yl)-5-methyl-1H-pyrazole-3-carboxamide], the results for the AC50 in experiment [1] and in experiment [2] were 223 nM and 1170 nM, respectively.

Regarding `Cc1cc(C(N)=O)nn1-c1ccc2c(ccn2Cc2ccc(-c3cnc(N)nc3)cc2)c1` [Example 1-29, 1-(1-(4-(2-aminopyrimidin-5-yl)benzyl)-1H-indol-5-yl)-5-methyl-1H-pyrazole-3-carboxamide], the AC50 in experiment [1] was 340 nM; in experiment [2] it was 774 nM.

Take `COc1ccc(-c2ccc(Cn3ccc4cc(-n5nc(C(N)=O)cc5C)ccc43)cc2)cc1` [Example 1-30, 1-(1-((4′-methoxy-[1,1′-biphenyl]-4-yl)methyl)-1H-indol-5-yl)-5-methyl-1H-pyrazole-3-carboxamide]: the AC50 in experiment [1] came out at 216 nM; in experiment [2] it was 952 nM.

As for `Cc1cc(C(N)=O)nn1-c1ccc2c(ccn2Cc2ccc(-c3ccc4c(c3)CC(=O)N4)cc2)c1` [Example 1-31, 5-methyl-1-(1-(4-(2-oxoindolin-5-yl)benzyl)-1H-indol-5-yl)-1H-pyrazole-3-carboxamide], the AC50 in experiment [1] came out at 55 nM; in experiment [2], 138 nM.

As to `Cc1cc(C(N)=O)nn1-c1ccc2c(ccn2Cc2ccc(-c3ccc(CO)cc3)cc2)c1` [Example 1-32, 1-(1-((4′-(hydroxymethyl)-[1,1′-biphenyl]-4-yl)methyl)-1H-indol-5-yl)-5-methyl-1H-pyrazole-3-carboxamide], the AC50 in experiment [1] amounted to 205 nM; in experiment [2] it was 578 nM.

On to `Cc1cc(C(N)=O)nn1-c1ccc2c(ccn2Cc2ccc(-c3ccc(NS(C)(=O)=O)cc3)cc2)c1` [Example 1-33, 5-methyl-1-(1-((4′-(methylsulfonamido)-[1,1′-biphenyl]-4-yl)methyl)-1H-indol-5-yl)-1H-pyrazole-3-carboxamide], for which the AC50 amounted to 82 nM in experiment [1] and 351 nM in experiment [2].

`Cc1cc(C(N)=O)nn1-c1ccc2c(ccn2Cc2ccc(-c3ccc(CN)cc3)cc2)c1` [Example 1-34, 1-(1-((4′-(aminomethyl)-[1,1′-biphenyl]-4-yl)methyl)-1H-indol-5-yl)-5-methyl-1H-pyrazole-3-carboxamide]: the AC50 in experiment [1] was determined as 248 nM; in experiment [2], 743 nM.

On to `Cc1cc(C(N)=O)nn1-c1ccc2c(ccn2Cc2ccc(-c3ccc(C(=O)N(C)C)cc3)cc2)c1` [Example 1-35, 1-(1-((4′-(dimethylcarbamoyl)-[1,1′-biphenyl]-4-yl)methyl)-1H-indol-5-yl)-5-methyl-1H-pyrazole-3-carboxamide], for which the AC50 was found to be 60 nM in experiment [1] and 217 nM in experiment [2].

As to `Cc1cc(C(N)=O)nn1-c1ccc2c(ccn2Cc2ccc(-c3cnc(N(C)C)nc3)cc2)c1` [Example 1-36, 1-(1-(4-(2-(dimethylamino)pyrimidin-5-yl)benzyl)-1H-indol-5-yl)-5-methyl-1H-pyrazole-3-carboxamide], the concentration at half-maximal activity (AC50) in experiment [1] was 477 nM; in experiment [2], 1050 nM.

For `Cc1cc(C(N)=O)nn1-c1ccc2c(ccn2Cc2ccc(-c3ccc(CN4CCOCC4)cc3)cc2)c1` [Example 1-37, 5-methyl-1-(1-((4′-(morpholinomethyl)-[1,1′-biphenyl]-4-yl)methyl)-1H-indol-5-yl)-1H-pyrazole-3-carboxamide], the AC50 in experiment [1] came out at 75 nM; in experiment [2] it was 206 nM.

Regarding `Cc1cc(C(N)=O)nn1-c1ccc2c(ccn2Cc2ccc(-c3ccc(C(=O)NCCN4CCOCC4)cc3)cc2)c1` [Example 1-38, 5-methyl-1-(1-((4′-((2-morpholinoethyl)carbamoyl)-[1,1′-biphenyl]-4-yl)methyl)-1H-indol-5-yl)-1H-pyrazole-3-carboxamide], the AC50 in experiment [1] was determined as 78 nM; in experiment [2], 240 nM.

`Cc1cc(C(N)=O)nn1-c1ccc2c(ccn2Cc2ccc(C3CCCNC3)cc2)c1` (stereo not drawn) [Example 2-4, 5-methyl-1-(1-(4-(piperidin-3-yl)benzyl)-1H-indol-5-yl)-1H-pyrazole-3-carboxamide]: the AC50 in experiment [1] came to 429 nM; in experiment [2], 1630 nM.

For the compound `Cc1cc(C(N)=O)nn1-c1ccc2c(ccn2Cc2ccc(C3CCN(C)CC3)cc2)c1` [Example 2-5, 5-methyl-1-(1-(4-(1-methylpiperidin-4-yl)benzyl)-1H-indol-5-yl)-1H-pyrazole-3-carboxamide], the results for the AC50 in experiment [1] and in experiment [2] were 281 nM and 760 nM, respectively.

For the compound `Cc1cc(C(N)=O)nn1-c1ccc2c(ccn2Cc2ccc(C3=CCNCC3)cc2)c1` [Example 3, 5-methyl-1-(1-(4-(1,2,3,6-tetrahydropyridin-4-yl)benzyl)-1H-indol-5-yl)-1H-pyrazole-3-carboxamide], the AC50 is 476 nM in experiment [1] and 1170 nM in experiment [2].

Turning to `Cc1cc(C(N)=O)nn1-c1ccc2c(ccn2Cc2ccc(C3=CCN(S(C)(=O)=O)CC3)cc2)c1` [Example 4, 5-methyl-1-(1-(4-(1-(methylsulfonyl)-1,2,3,6-tetrahydropyridin-4-yl)benzyl)-1H-indol-5-yl)-1H-pyrazole-3-carboxamide], the values for the AC50 in experiment [1] and in experiment [2] were 109 nM and 306 nM, respectively.

As for `Cc1cc(C(N)=O)nn1-c1ccc2c(ccn2Cc2ccc(C3=CCN(C(=O)CCCN(C)C)CC3)cc2)c1` [Example 10], the figures for the AC50 in experiment [1] and in experiment [2] were 189 nM and 512 nM, respectively.

For `Cc1cc(C(N)=O)nn1-c1ccc2c(ccn2Cc2ccc(N3CCNCC3)cc2)c1` [Example 11-1, 5-methyl-1-(1-(4-(piperazin-1-yl)benzyl)-1H-indol-5-yl)-1H-pyrazole-3-carboxamide], the AC50 in experiment [1] is 4080 nM; in experiment [2] it was more than 10000 nM.

Take `Cc1cc(C(N)=O)nn1-c1ccc2c(ccn2Cc2ccc(N3CCN(C)CC3)cc2)c1` [Example 11-2, 5-methyl-1-(1-(4-(4-methylpiperazin-1-yl)benzyl)-1H-indol-5-yl)-1H-pyrazole-3-carboxamide]: the AC50 came to 341 nM in experiment [1] and 1060 nM in experiment [2].

As to `Cc1cc(C(N)=O)nn1-c1ccc2c(ccn2Cc2ccc(N3CC4CN(C)CC4C3)cc2)c1` (stereo not drawn) [Example 11-3, 5-methyl-1-(1-(4-(5-methylhexahydropyrrolo[3,4-c]pyrrol-2(1H)-yl)benzyl)-1H-indol-5-yl)-1H-pyrazole-3-carboxamide], the AC50 in experiment [1] was 1160 nM; in experiment [2] it was 2970 nM.

For the origin of these results see patent US10654828B2 (NOVARTIS AG, priority 2017, dated 2020).
